For 34 compounds, IC50 results are on record in PubChem BioAssay AID504322 (Emory University Molecular Libraries Screening Center, 2011).

Activity calls are given as the source filed them. The rule behind the calls is not given here.

The experiment relates to CHOP reporter cell assay, percent of control. The experiment can be described thus: CHOP reporter inhibitor potency, dose response, cell-based (AID 504322).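 Note: CHO cells carrying a CHOP reporter stimulated with tunicamycin to induce ER stress; potency is for inhibition of the stress-induced reporter signal.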
Turning to `Cc1cc(C(=O)COC(=O)c2ccccc2O)c(C)n1Cc1cccs1`, the IC50 – broadly, the concentration needed to halve the response being measured – is < 0.16 µM (inactive).

On to `O=C(Nc1ccc(Oc2c(F)c(F)c(F)c(F)c2F)cc1)OC1CCN2Cc3ccccc3N=C12` (centres undefined), for which the IC50 was 8.37 µM (inactive). Take `CN1CCN(CC(=O)N2CCn3c4c(c5cc(C6CCCCC6)ccc53)CCCC42)CC1` (centres undefined): the IC50 was 9.6 µM (inactive). As for `O=C(NCCNC(=O)c1cc(OCC(F)(F)F)ccc1OCC(F)(F)F)Nc1cccc(C(F)(F)F)c1`, the concentration for half-maximal inhibition (IC50) is 2.57 µM.

For `CCOC(=O)c1c(C)[nH]c2c1-c1ccccc1C(=O)C2=O`, the 50% inhibitory concentration (IC50) was 2.38 µM. On to `CCOC(=O)c1c2ccc(OCC(=O)N/N=C/c3ccc(C)cc3)cc2n2ccccc12`, for which the IC50 is 9.52 µM (inactive). In the case of `C#CC(=O)N(c1cc(OC)ccc1OC)C(C(=O)NC1CCCC1)c1cccs1` (centres undefined) it was > 10 µM (inactive); in that of `CC(C)(C)C1C/C(=C/c2ccccn2)C(=O)/C(=C/c2ccccn2)C1` (centres undefined), 0.3 µM; in that of `CCc1ccc2[nH]c(=O)c(C(c3nnnn3Cc3ccco3)N3CCC(C)CC3)cc2c1` (centres undefined), 4.96 µM. `NC(=O)CC(NC(=O)Cc1cccc2ccccc12)c1ccc(NCCOc2ccccc2)c([N+](=O)[O-])c1` (centres undefined): the IC50 was 8.33 µM (inactive). In the case of `Cc1ccc(-c2[nH]ncc2/C=N/n2c(COc3ccccc3)nc3ccccc3c2=O)cc1` it was 3.18 µM (inactive). In the case of `COc1ccc2c3c(cccc13)C(=O)N(O)C2=O` it was 2.57 µM; in that of `Cc1cc(C2=NNC(=NC3CC3)SC2)c(C)n1-c1ccccc1`, < 0.16 µM (inactive). In the case of `O=C(Nc1ccc(OC(F)F)cc1)Nc1cccc(C(F)(F)F)c1` it was 8.9 µM (inactive); in that of `CCc1ccc(/C=c2\s/c(=C\C(=O)C(C)(C)C)[nH]c2=O)cc1`, 9.29 µM (inactive); in that of `CCCCCc1c(C)nc(NCc2ccccc2)[nH]c1=O`, 3.65 µM.

In the case of `Cc1ccc(/C=N/NC(=O)CCCOc2ccc(Cl)cc2Cl)cc1`, the IC50 is 7.92 µM (inactive). In the case of `CCOC(=O)COc1ccccc1/C=C\[N+](=O)[O-]` it was 9.51 µM (inactive). In the case of `N#CC(C#N)=C1C=CC=CN1/C(=C\c1ccccc1Cl)C(=O)c1ccccc1` it was > 10 µM (inactive).

Consider `Cc1cc2c(cc1C)CSC(c1c(O)ccc3ccccc13)SC2`, for which the IC50 was > 10 µM (inactive). In the case of `CC(C)(C)c1ccc(C2CC2C(=O)N/N=C\c2ccc[nH]2)cc1` (centres undefined) it was 4.18 µM (inactive); in that of `O=C(NNc1ccccc1Br)C(O)(c1cccc(C(F)(F)F)c1)c1cccc(C(F)(F)F)c1`, 2.14 µM. In the case of `COc1ccc(-c2[nH]ncc2N=Nc2cc(C)cc(C)c2)cc1` it was 9.27 µM (inactive).

For `CCOc1ccc(C(=O)C(CCC(CN(C)C)C(=O)c2ccc(OCC)cc2)CN(C)C)cc1` (centres undefined), the IC50 is 9.69 µM (inactive).

As for `Cc1ccc(NC(=O)c2cc3ccccc3oc2=O)cc1S(=O)(=O)N(C)C`, the IC50 is under 0.16 µM. With `COc1c(CC=C(C)C)cc(C2CC(=O)c3c(O)cc(O)cc3O2)cc1CC=C(C)C` (centres undefined), the IC50 was > 10 µM (inactive). In the case of `Cc1ccc(OCC(=O)N2CCN(c3nnc(-c4ccc(C)cc4)c4ccccc34)CC2)cc1` it was 8.38 µM (inactive). In the case of `C/C(N)=C(/C#N)C(=O)COC(=O)C1CCC(C(C)(C)C)CC1` (centres undefined) it was 2.41 µM; in that of `O=C(On1c(-c2ccccc2)nc2ccccc2c1=O)c1ccco1`, > 10 µM (inactive); in that of `CN(C)c1ccc(/C=C/c2ccc3c4ccccc4ccc3[n+]2-c2ccccc2)cc1`, 1.14 µM (inactive). For the compound `CCC1CCc2c(sc(NC(=O)c3ccoc3C)c2C(N)=O)C1` (centres undefined), the IC50 was > 10 µM (inactive). In the case of `O=C(NC(c1ccccc1)c1cc(Cl)c2cccnc2c1O)c1cccnc1` (centres undefined) it was 3.36 µM; in that of `CCOc1cc(C(=O)CSc2nnc(CNc3ccc(Cl)cc3)o2)ccc1NC(=O)CC`, 9.47 µM (inactive); in that of `Cc1cc(/C=N/n2cnnc2)c(C)n1-c1ccc(OCc2ccc(Cl)cc2Cl)cc1`, < 0.16 µM (inactive).
